From patent US20190084968A1, “FUMAGILLOL HETEROCYCLIC COMPOUNDS AND METHODS OF MAKING AND USING SAME” (Zafgen, Inc., priority 2015, published 2019)
Structures can show the parent of a compound that is named as a salt.

Experiments:
[1] = test system: Diet Induced Obese (DIO) C57BL/6 mice; experiment: 10 day DIO mouse model (body weight, food intake, hematology, blood chemistry); format: in vivo; conditions: mouse, in vivo, sc, 0.3 mg/kg
From the text: The objective of this study design was to investigate the efficacy of disclosed compounds in a 10 day DIO mouse model. Effects on body weight, food intake, hematology and blood chemistry were the primary readouts of this study design. […] Mice were fed Research Diets D12492 (60% Kcal fat, 20% Kcal carbohydrate and 20% protein) and provided water ad libitum. DIO mice were received and housed in the facility for approximately two weeks prior to the start of test article administration. On Day −4 or −3, mice were randomized into study groups based on body weight and body weights were continued to be recorded daily for the duration of the study. Daily food intake was assessed starting on Study Day −2 by weighing of the food with hopper together to avoid loss of food in transfer.
(§1) Compounds were formulated into a 100% DMSO stock (at 9 mg/mL) prior to the start, and further diluted into the target working concentration using the vehicle of 10% DMSO in water. Prior to test article administration, starting on Day −3 a dosing acclimation occured with all animals receiving a subcutaneous injection of vehicle (10% DMSO) only for 3 days. Starting on Day 1, test compounds or vehicle were administered based on individual body weight, subcutaneously, once a day for 10 days. All mice were sacrificed on Day 11, 24 hours following the final dosing on Day 10. After sacrifice, whole blood was collected and analyzed for hematology and blood chemistry parameters.
(§2) Compounds were tested vs. vehicle at various doses (1.0, 0.5, 0.3, 0.1, 0.03 mpk sc (mg per kg animal weight delivered subcutaneously), and the results are shown in Table 2 below.

recombinant human MetAP2 = biological target: T1, recombinant human MetAP2 (Homo sapiens, UniProt P50579); experiment: Recombinant human MetAP2 enzyme inhibition assay (MAS peptide / amino acid oxidase / Amplex UltraRed); format: biochemical
T1 construct: Flag; made in house
T1 sequence (P50579 whole entry): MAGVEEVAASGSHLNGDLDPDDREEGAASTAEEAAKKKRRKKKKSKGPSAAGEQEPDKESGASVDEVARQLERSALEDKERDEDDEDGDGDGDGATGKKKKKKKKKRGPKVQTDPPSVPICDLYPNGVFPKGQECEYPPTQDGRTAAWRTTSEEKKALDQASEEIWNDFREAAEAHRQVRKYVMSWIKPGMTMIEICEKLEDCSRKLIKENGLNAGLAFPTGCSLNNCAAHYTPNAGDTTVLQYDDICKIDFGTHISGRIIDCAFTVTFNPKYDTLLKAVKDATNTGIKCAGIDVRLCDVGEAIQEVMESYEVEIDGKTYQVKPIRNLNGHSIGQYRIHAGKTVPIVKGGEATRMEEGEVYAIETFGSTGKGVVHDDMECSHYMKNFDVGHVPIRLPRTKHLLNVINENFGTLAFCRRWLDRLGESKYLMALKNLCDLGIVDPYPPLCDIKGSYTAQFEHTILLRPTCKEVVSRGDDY
Procedure: Compounds are tested for their capacity to inhibit recombinant human MetAP2 activity using the following assay.
Flag tagged Human recombinant MetAP2 expressed and isolated for use as the enzyme source. 10 mM stock solutions of compounds were prepared in 100% DMSO and further diluted in 100% DMSO required concentration to 1 mM stocks. The stock compound solutions and DMSO vehicle controls were diluted to target final compound concentrations using assay buffer to a final concentration of 50 mM HEPES containing 100 mM NaCl, pH adjusted to 7.5. The MAS peptide was formulated to a 7.5 mM stock in distilled water and prior to use further diluted 1:4. […] 40 μl of enzyme was mixed with 100 μl of MnCl2 then further diluted in assay buffer to a final concentration of 16 μg/ml. To test for compound effect on MetAP2 enzyme activity, 5 μl of test compound, 10 μl of MAS substrate/amino acid oxidase mixture, 10 μl of MetAP2 was added to test wells in a 384 well black plate with blank wells containing no enzyme, replaced with 10 μl of assay buffer. All compounds were tested in duplicate on two occasions on the same day.
The plate was sealed with a TopSeal A cover and mixed briefly on an orbital mixer at 900 rpm. The plate was incubated for a further 25 minutes at 25° C. A 5× stock of Amplex buffer was prepared (0.25M sodium phosphate, pH 7.4) and stored at 4° C. When preparing for use the stock was diluted with distilled water. […] 25 μl detection reagent was added to each well of the test plate, which was re-sealed and mixed briefly on an orbital shaker. […] At the end of the MetAP2 incubation 25 μl Amplex/HRP mixture per well was added and the plate read plate on a plate reader.

[2] = test system: Sprague Dawley rats on high fat diet (DIO); experiment: 11 day rat DIO model (body weight, food intake, hematology, blood chemistry); format: in vivo; conditions: rat, in vivo, sc
From the text: The objective of this study design is to investigate the efficacy of disclosed compounds in an 11 day rat DIO model used to screen compounds for pharmacologic efficacy on endpoints related to obesity and metabolism. Effects on body weight, food intake, hematology and blood chemistries were the primary readouts of this study design. […] Rats were fed Research Diets D12451 (45% High Fat) and provided water ad libitum. Rats were received and housed in the facility for at least two or three weeks prior to start of test article administration. On Day −4 or −3, rats were randomized into study groups based on body weight and body weights were continued to be recorded daily for the duration of the study. Daily food intake was assessed starting on Study Day −2 by weighing the hopper including the food to avoid loss of food in transfer.
as §1, with “for 11” for “for 10”, “All animals” for “All mice”, “11, approximately 2” for “11, 24”, “Day 11.” for “Day 10.”
as §2

[3] = test system: embryo/fetal development in pregnant Sprague Dawley rats; conditions: 6 mpk subcutaneously once every three days, Gestation Days 6-18, pregnant rats
Procedure: The objective of this study design was to evaluate the potential effects of disclosed compounds on embryo/fetal development when given subcutaneously to pregnant rats once every three days during the critical period of organogenesis (Gestation Days 6-18). Female, Sprague Dawley rats, approximately 10 weeks of age, time bred, were ordered from a certified vendor and housed individually housed in stainless steel cages suspended over flush pans, on a 12-hour light-dark cycle (0700-1900) at 20-26° C. and 30-70% humidity. Rats were fed a standard rodent chow and provided water ad libitum. Rats were received and housed in the facility for a period of approximately 1 to 2 days.
Compounds were formulated using 100% DMSO mixed in Sterile Water for Injection, resulting in 2% DMSO solution in water. If necessary, due to limited solubility of a test article, a higher percentage of DMSO solution in water was used. Groups of 8 mated and presumed pregnant female rats were given subcutaneous doses of vehicle or test article, once every three days, beginning on Gestation Day 6 and ending on Gestation Day 18 (Days 6, 9, 12, 15, and 18), maintained two more days, and then euthanized and necropsied on Gestation Day 20. Body weights was recorded for all animals on Gestation Days 5 (purpose of randomization), 6, 9, 12, 15, 18, and 20 (scheduled euthanasia). Food consumption by weight was recorded on Gestation Days 6, 9, 12, 15, 18, and 20 (scheduled termination).
At necropsy, the dams were examined visually for external abnormalities including palpable masses. The abdominal, thoracic, and cranial cavities and their contents were examined for abnormalities and findings will be recorded. The reproductive tract were examined to record the number of ovarian corpora lutea, the number and location of uterine implantation sites noting the position of the cervix, and the number of early resorptions, late resorptions, live fetuses, and dead fetuses. For dead fetuses and late resorptions, crown-to-rump length and weight were recorded, if possible, and the fetus was discarded. For viable fetuses, weight, sex, and grossly visible external abnormalities were recorded.

| Structure (SMILES) | DIO Mouse 10-day weight loss vs vehicle at indicated dose [1] [%] | IC50 (recombinant human MetAP2) [nM] | DIO Rat 11-day weight loss vs vehicle at indicated dose ([2]; 0.3 mg/kg) [%] | DIO Rat 11-day weight loss vs vehicle at indicated dose ([2]; 1 mg/kg) [%] | Rat Embryofetal @6 mpk [3] |
| --- | --- | --- | --- | --- | --- |
| CO[C@@H]1[C@H](OC(=O)N2CC(CCN3CC(O)C3)C2)CC[C@]2(CO2)[C@H]1[C@@]1(C)O[C@@H]1CC=C(C)C [Example 6, (3R,4S,5S,6R)-5-methoxy-4-((2R,3R)-2-methyl-3-(3-methylbut-2-enyl)oxiran-2-yl)-1-oxaspiro[2.5]octan-6-yl 3-(2-(3-hydroxyazetidin-1-yl)ethyl)azetidine-1-carboxylate formate] | 11.8 | < 50 | 0.8 | 4.6 | Positive |
| CO[C@@H]1[C@H](OC(=O)N2CC(CCN3CC(C)(O)C3)C2)CC[C@]2(CO2)[C@H]1[C@@]1(C)O[C@@H]1CC=C(C)C [Example 9, (3R,4S,5S,6R)-5-methoxy-4-((2R,3R)-2-methyl-3-(3-methylbut-2-enyl)oxiran-2-yl)-1-oxaspiro[2.5]octan-6-yl 3-(2-(3-hydroxy-3-methylazetidin-1-yl)ethyl)azetidine-1-carboxylate formate] | 7.4 | < 50 | 5.5 | 4.8 | Positive |
| CO[C@@H]1[C@H](OC(=O)N2CC(CCN3CC4C(C3)C4(F)F)C2)CC[C@]2(CO2)[C@H]1[C@@]1(C)O[C@@H]1CC=C(C)C (stereo partly drawn) [Example 22, (3R,4S,5S,6R)-5-methoxy-4-((2R,3R)-2-methyl-3-(3-methylbut-2-enyl)oxiran-2-yl)-1-oxaspiro[2.5]octan-6-yl 3-(2-(6,6-difluoro-3-azabicyclo[3.1.0]hexan-3-yl)ethyl)azetidine-1-carboxylate formate] | 14 | < 50 |  |  | Negative |
